The target in one test is T1, MA3706 (Methanosarcina acetivorans, UniProt Q8TJS1).
T1 construct: gene MA_3706; removal not described), expressed in E. coli BL21(DE3) Rosetta, Ni-NTA purified
As to the kind of experiment: isothermal titration calorimetry. Format: binding. As to conditions: read-out: dissociation constant.

The target of a further test is T2, MA4265 (Methanosarcina acetivorans, UniProt Q8TI91).
T2 construct: gene MA_4265; removal not described), expressed in E. coli at 25°C, Ni-NTA purified
T2 sequence (Q8TI91 1-342): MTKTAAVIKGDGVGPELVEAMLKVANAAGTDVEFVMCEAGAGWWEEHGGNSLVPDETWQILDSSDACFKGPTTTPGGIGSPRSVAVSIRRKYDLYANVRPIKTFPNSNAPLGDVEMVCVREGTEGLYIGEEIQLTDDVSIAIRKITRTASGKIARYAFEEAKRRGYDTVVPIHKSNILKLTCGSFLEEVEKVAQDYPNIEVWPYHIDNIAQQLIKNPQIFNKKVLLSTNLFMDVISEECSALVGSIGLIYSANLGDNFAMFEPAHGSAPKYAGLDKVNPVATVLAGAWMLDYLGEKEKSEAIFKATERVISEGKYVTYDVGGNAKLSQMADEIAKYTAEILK
As to the kind of experiment: waterLOGSY 1H NMR. The test is classed as binding. As to conditions: 300 μM ligand, 30 μM protein; 50 mM sodium phosphate, 100 mM NaCl, pH 7.0; 5 or 25 °C.

pKd: −log10 of the molar value.

T1 sequence (Q8TJS1 whole entry): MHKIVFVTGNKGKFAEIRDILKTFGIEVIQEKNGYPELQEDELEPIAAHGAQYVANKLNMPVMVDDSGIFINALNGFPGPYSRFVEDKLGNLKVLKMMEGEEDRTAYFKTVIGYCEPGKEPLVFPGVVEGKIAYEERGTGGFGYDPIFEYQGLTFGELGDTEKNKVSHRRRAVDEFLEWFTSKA

On to `O=P(O)(O)OP(=O)(O)OP(=O)(O)OC[C@H]1O[C@@H](n2cnc3c(O)ncnc32)[C@H](O)[C@@H]1O` [ITP], for which the pKd at MA3706 is 5.11.

Regarding `O=C(O)C[C@H](C(=O)O)[C@@H](O)C(=O)O` [isocitrate], the “waterLOGSY 1H NMR” value at MA4265 was “Only isocitrate binds to MA4265 under the conditions used”.
